Columns and labels:
Format in all cases: cell-based
[1] = molecular target: T1, CSF1R (colony-stimulating factor 1 receptor) (Mus musculus, UniProt P09581); test: Western blot of CSF1R signaling in RAW264 cells with and without drug removal (reference CSF1R inhibitor)
T1 sequence (P09581 20-977): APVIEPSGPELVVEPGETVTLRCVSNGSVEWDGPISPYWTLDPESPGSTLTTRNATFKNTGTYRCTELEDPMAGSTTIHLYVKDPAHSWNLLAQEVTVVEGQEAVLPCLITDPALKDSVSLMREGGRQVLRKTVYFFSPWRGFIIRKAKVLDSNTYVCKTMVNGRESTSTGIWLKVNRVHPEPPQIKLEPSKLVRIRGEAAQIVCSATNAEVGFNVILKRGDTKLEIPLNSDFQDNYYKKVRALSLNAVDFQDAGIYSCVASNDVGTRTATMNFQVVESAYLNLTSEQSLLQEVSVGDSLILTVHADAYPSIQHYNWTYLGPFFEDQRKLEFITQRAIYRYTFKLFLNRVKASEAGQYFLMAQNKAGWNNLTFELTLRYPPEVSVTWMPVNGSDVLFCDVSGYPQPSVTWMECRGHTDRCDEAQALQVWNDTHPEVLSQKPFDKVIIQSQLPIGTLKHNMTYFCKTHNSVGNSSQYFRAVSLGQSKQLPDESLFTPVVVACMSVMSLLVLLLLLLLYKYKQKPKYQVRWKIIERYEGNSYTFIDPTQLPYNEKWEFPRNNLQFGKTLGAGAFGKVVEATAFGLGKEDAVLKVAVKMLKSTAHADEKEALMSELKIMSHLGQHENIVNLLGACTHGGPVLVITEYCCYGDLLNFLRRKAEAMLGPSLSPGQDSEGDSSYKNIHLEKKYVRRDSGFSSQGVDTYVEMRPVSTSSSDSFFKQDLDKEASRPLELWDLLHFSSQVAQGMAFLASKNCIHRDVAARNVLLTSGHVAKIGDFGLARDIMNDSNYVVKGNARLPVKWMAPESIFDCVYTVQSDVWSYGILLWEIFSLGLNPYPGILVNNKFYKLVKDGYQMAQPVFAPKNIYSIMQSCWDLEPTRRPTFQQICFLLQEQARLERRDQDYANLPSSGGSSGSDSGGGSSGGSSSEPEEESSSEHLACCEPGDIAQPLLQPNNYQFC

[2] = molecular target: T1, CSF1R (colony-stimulating factor 1 receptor); test: Western blot of M-CSF-induced CSF1R phosphorylation in murine BMDMs and RAW264 cells; inhibition persists after drug washout
[3] = molecular target: CSF1R (colony-stimulating factor 1 receptor) (Homo sapiens, UniProt P07333); test: Western blot of M-CSF-induced CSF1R phosphorylation in human monocyte-derived macrophages
Chain of CSF1R (colony-stimulating factor 1 receptor) (Homo sapiens, UniProt P07333) (P07333 20-972): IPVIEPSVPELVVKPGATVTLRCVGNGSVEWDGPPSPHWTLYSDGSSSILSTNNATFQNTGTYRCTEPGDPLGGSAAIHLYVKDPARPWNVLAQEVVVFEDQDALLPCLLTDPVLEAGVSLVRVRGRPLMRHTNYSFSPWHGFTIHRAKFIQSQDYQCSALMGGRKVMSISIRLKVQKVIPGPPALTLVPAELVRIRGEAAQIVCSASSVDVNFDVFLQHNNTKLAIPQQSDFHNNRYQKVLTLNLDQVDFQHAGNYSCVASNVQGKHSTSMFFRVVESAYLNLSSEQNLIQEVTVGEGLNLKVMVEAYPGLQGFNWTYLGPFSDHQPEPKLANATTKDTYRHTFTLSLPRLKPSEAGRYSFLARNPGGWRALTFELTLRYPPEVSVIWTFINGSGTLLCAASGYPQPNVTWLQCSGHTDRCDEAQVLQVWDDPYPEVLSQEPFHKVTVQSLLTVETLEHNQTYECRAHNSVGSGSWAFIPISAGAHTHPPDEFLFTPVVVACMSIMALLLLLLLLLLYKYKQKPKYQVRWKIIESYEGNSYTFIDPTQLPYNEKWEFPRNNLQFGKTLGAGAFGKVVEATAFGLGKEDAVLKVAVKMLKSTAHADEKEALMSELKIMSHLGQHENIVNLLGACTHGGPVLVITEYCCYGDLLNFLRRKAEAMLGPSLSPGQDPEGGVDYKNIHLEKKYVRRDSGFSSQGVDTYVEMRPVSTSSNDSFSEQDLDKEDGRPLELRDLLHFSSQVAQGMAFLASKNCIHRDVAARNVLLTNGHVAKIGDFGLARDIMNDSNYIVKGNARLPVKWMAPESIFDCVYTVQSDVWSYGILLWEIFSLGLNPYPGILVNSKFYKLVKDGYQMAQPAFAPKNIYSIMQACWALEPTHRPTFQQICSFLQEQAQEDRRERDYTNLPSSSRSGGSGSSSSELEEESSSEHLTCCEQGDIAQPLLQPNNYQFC

| SMILES | Western blot of CSF1R signaling in RAW264 cells with and without drug removal (r) [1] | Western blot of M-CSF-induced CSF1R phosphorylation in murine BMDMs and RAW264 c [2] | Western blot of M-CSF-induced CSF1R phosphorylation in human monocyte-derived ma [3] |
| --- | --- | --- | --- |
| CNC(=O)c1cc(Oc2ccc3nc(N[C@@H]4CCCC[C@H]4O)sc3c2)ccn1 [BLZ945] | the inhibitory activity of BLZ945, another CSF1R inhibitor with an IC50 comparable to that of FF-10101, decreased upon drug removal | – | – |
| CCCNc1nc(Nc2ccc(C#N)cc2)ncc1C#CCCCNC(=O)[C@H](C)N(C)C(=O)/C=C/CN(C)C [FF-10101] | – | upon reexposure to M-CSF was markedly inhibited by FF-10101 in a dose-dependent manner | human monocyte-derived macrophages upon reexposure to M-CSF was markedly inhibited by FF-10101 in a dose-dependent manner |

Reference: publication PMC11721313, “Sustained inhibition of CSF1R signaling augments antitumor immunity through inhibiting tumor-associated macrophages” (JCI Insight, 2025)
